Results: patent publication US20230181581A1, “CIRCULATING B CELL SUBPOPULATIONS IN INDOLENT B CELL LYMPHOMA” (Alexion Pharmaceuticals, Inc., priority 2020, published 2023)
Several values for one entry are separate records, joined by “and”; a condition that tells them apart may be missing. Identical values can stand only once. Entries after “also recorded” stand apart in the source; their conditions may differ.

Legend:
Assay type in all cases: in vivo, human
[1] = tested on: patients with indolent B cell lymphoma (iNHL); assay: Phase IIa study: clinical response (best response) to single agent cerdulatinib in r/r iNHL patients grouped by baseline B cell subsets; conditions: 30 mg BID
Protocol: (§1) This example describes a phase IIa study designed to determine the safety, efficacy, pharmacokinetics, and pharmacodynamics of cerdulatinib at the selected phase II dose of 30 mg BID, dosed in 28 day cycles, in patients with r/r B or T cell malignancies.
(§2) Up to 50 patients were enrolled in 5 cohorts; aggressive lymphoma, iNHL, CLL/SLL, PTCL (all receiving single agent cerdulatinib), and iNHL with cerdulatinib in combination with anti-CD20 therapy. Patients remained on drug until discontinuation due to progressive disease (PD), adverse event (AE), withdrawal of consent (WC), or at the discretion of the treating physician.
(§3) Forty patients with iNHL were enrolled in a cohort receiving single agent cerdulatinib. From this cohort, 30 ml of whole blood was collected from each patient at pre-dose at baseline (C1), cycle 2 day 1 (C2), cycle 3 day 1 (C3), and cycle 6 day 1 (C6) in 10 ml mononuclear cell protection tubes (CPT tubes, BD Bioscience, San Jose, CA) and immediately centrifuged to separate mononuclear cells from plasma and red blood cells at each clinical site. At each time point, tubes were shipped for same day delivery to Caprion Biosciences, Montreal Canada, for preparation and live cell freezing of peripheral blood mononuclear cells (PBMC) by ficoll gradient centrifugation using standard procedures. Banked PBMC’s were stored at -80° C. until 5-8 patient samples through cycle 6 were obtained to enable batched flow cytometry analysis of B cell subsets for each patient over time.
A PCA analysis of the data was performed to identify subgroups of patients characterized by a common B cell phenotype. Subsequent analysis of the results of the PCA by hierarchical clustering was performed.

[2] = tested on: patients with indolent B cell lymphoma (iNHL); assay: Phase IIa study: patient disposition (discontinuation, treatment duration) on single agent cerdulatinib; conditions: r/r iNHL, 30 mg BID
Protocol: as §1
as §2, with “physician. […]” for “physician.”

[3] = tested on: circulating B cell subsets; assay: B cell subpopulation analysis of patient PBMC by flow cytometry over time on cerdulatinib
Protocol: as §3
PBMC’s were thawed and rested overnight in RPMI containing 10% fetal bovine serum. Cells were then stained with a cocktail containing Aqua live/dead cell stain (Life Technologies, Carlsbad, CA), and the following antibodies all obtained from BD Biosciences; CD19 PE-Cy7, CD20 BUV395, HLA-DR APC-Cy7, CD27 BV786, IgD PE, CD10 BV650, CD38 BV711, CD138 BV421, IgG BV605, and IgM APC. Cells were stained for 1 hour at room temperature, washed in phosphate buffered saline containing 0.5% bovine serum albumin, and subjected to flow cytometry using the BD Cantos. A maximum number of events was collected, the median number of total B cells collected was 18,789. The B cell subset gating strategy is described in FIG. 1.
Live B cells were then gated based on aqua viability stain and CD19. IgD and CD27 delineated double negative (DN), naïve, switched memory (SM), and non-switched memory (NSM). Within the naive cell area transitional B cells were identified based on CD10 expression. Within the SM area IgG and IgM switched B cells were identified. Plasma cells were identified based on high CD27 expression and CD138. Percent lymphocytes of total live PBMC’s were also calculated. All gating and calculation of B cell subset frequencies either from the total B cell gate or the immediate parent gate of a B cell subset were calculated using Flow Jo software (Tree Star, Inc., Ashland, OR), and analyzed.

[4] = iNHL patients, baseline (C1) vs cycles 2, 3, 6, FIG. 5A

Question: Which results are given for `CCS(=O)(=O)N1CCN(c2ccc(Nc3ncc(C(N)=O)c(NC4CC4)n3)cc2)CC1` [cerdulatinib, 4-(cyclopropylamino)-2-((4-(4-(ethylsulfonyl)piperazin-1-yl)phenyl)amino)pyrimidine-5-carboxamide]?
Answer: Best Response CR, number of patients ([1]; G1 (N=9)): 1.00; Best Response CR, percent of patients ([1]; G1 (N=9)): 11.1%; Best Response PD, number of patients ([1]; G1 (N=9)): 1.00; Best Response PD, percent of patients ([1]; G1 (N=9)): 11.1%; Best Response PR, number of patients ([1]; G1 (N=9)): 1.00; Best Response PR, percent of patients ([1]; G1 (N=9)): 11.1%; Best Response SD, number of patients ([1]; G1 (N=9)): 2.00; Best Response SD, percent of patients ([1]; G1 (N=9)): 22.2%; ORR (overall response rate), percent of patients ([1]; G1 (N=9)): 22% and 22.2%; ORR + clinical benefit, number of patients ([1]; G1 (N=9)): 4.00; ORR + clinical benefit, percent of patients ([1]; G1 (N=9)): 44.4%; ORR, number of patients ([1]; G1 (N=9)): 2.00; Best Response CR, number of patients ([1]; G2 (N=16)): 5.00; Best Response CR, percent of patients ([1]; G2 (N=16)): 31.3%; Best Response PD, number of patients ([1]; G2 (N=16)): 0 (0%); Best Response PD, percent of patients ([1]; G2 (N=16)): 0 (0%); Best Response PR, number of patients ([1]; G2 (N=16)): 8.00; Best Response PR, percent of patients ([1]; G2 (N=16)): 50.0%; Best Response SD, number of patients ([1]; G2 (N=16)): 1.00; Best Response SD, percent of patients ([1]; G2 (N=16)): 6.3%; ORR (overall response rate), percent of patients ([1]; G2 (N=16)): 81% and 81.3%; ORR + clinical benefit, number of patients ([1]; G2 (N=16)): 14.0; ORR + clinical benefit, percent of patients ([1]; G2 (N=16)): 87.5%; ORR, number of patients ([1]; G2 (N=16)): 13.0; Best Response CR, number of patients ([1]; G2 + G3 (N=29)): 6.00; Best Response CR, percent of patients ([1]; G2 + G3 (N=29)): 20.7%; Best Response PD, number of patients ([1]; G2 + G3 (N=29)): 3.00; Best Response PD, percent of patients ([1]; G2 + G3 (N=29)): 10.3%; Best Response PR, number of patients ([1]; G2 + G3 (N=29)): 14.0; Best Response PR, percent of patients ([1]; G2 + G3 (N=29)): 48.3%; Best Response SD, number of patients ([1]; G2 + G3 (N=29)): 4.00; Best Response SD, percent of patients ([1]; G2 + G3 (N=29)): 13.8%; ORR (overall response rate), percent of patients ([1]; G2 + G3 (N=29)): 69.0%; ORR + clinical benefit, number of patients ([1]; G2 + G3 (N=29)): 24.0; ORR + clinical benefit, percent of patients ([1]; G2 + G3 (N=29)): 82.8%; ORR, number of patients ([1]; G2 + G3 (N=29)): 20.0; Best Response CR, number of patients ([1]; G3 (N=13)): 1.00; Best Response CR, percent of patients ([1]; G3 (N=13)): 7.7%; Best Response PD, number of patients ([1]; G3 (N=13)): 3.00; Best Response PD, percent of patients ([1]; G3 (N=13)): 23.1%; Best Response PR, number of patients ([1]; G3 (N=13)): 6.00; Best Response PR, percent of patients ([1]; G3 (N=13)): 46.2%; Best Response SD, number of patients ([1]; G3 (N=13)): 3.00; Best Response SD, percent of patients ([1]; G3 (N=13)): 23.1%; ORR (overall response rate), percent of patients ([1]; G3 (N=13)): 53.8%; ORR + clinical benefit, number of patients ([1]; G3 (N=13)): 10.0; ORR + clinical benefit, percent of patients ([1]; G3 (N=13)): 76.9%; ORR, number of patients ([1]; G3 (N=13)): 7.00; Best Response CR, number of patients ([1]; Total (N=38)): 7.00; Best Response CR, percent of patients ([1]; Total (N=38)): 18.4%; Best Response PD, number of patients ([1]; Total (N=38)): 4.00; Best Response PD, percent of patients ([1]; Total (N=38)): 10.5%; Best Response PR, number of patients ([1]; Total (N=38)): 15.0; Best Response PR, percent of patients ([1]; Total (N=38)): 39.5%; Best Response SD, number of patients ([1]; Total (N=38)): 6.00; Best Response SD, percent of patients ([1]; Total (N=38)): 15.8%; ORR (overall response rate), percent of patients ([1]; Total (N=38)): 57.9%; ORR + clinical benefit, number of patients ([1]; Total (N=38)): 28.0; ORR + clinical benefit, percent of patients ([1]; Total (N=38)): 73.7%; ORR, number of patients ([1]; Total (N=38)): 22.0; Discontinuation due to AE (adverse event), number of patients ([2]; G1 (N=9)): 4.00; Discontinuation due to AE (adverse event), percent of patients ([2]; G1 (N=9)): 44.4%; Discontinuation due to PD (progressive disease), number of patients ([2]; G1 (N=9)): 1.00; Discontinuation due to PD (progressive disease), percent of patients ([2]; G1 (N=9)): 11.1%; Discontinuation due to AE (adverse event), number of patients ([2]; G2 (N=16)): 1.00; Discontinuation due to AE (adverse event), percent of patients ([2]; G2 (N=16)): 6.3%; Discontinuation due to PD (progressive disease), number of patients ([2]; G2 (N=16)): 6.00; Discontinuation due to PD (progressive disease), percent of patients ([2]; G2 (N=16)): 37.5%; Discontinuation due to AE (adverse event), number of patients ([2]; G2 + G3 (N=29)): 3.00; Discontinuation due to AE (adverse event), percent of patients ([2]; G2 + G3 (N=29)): 10.3%; Discontinuation due to PD (progressive disease), number of patients ([2]; G2 + G3 (N=29)): 11.0; Discontinuation due to PD (progressive disease), percent of patients ([2]; G2 + G3 (N=29)): 37.9%; Discontinuation due to AE (adverse event), number of patients ([2]; G3 (N=13)): 2.00; Discontinuation due to AE (adverse event), percent of patients ([2]; G3 (N=13)): 15.4%; Discontinuation due to PD (progressive disease), number of patients ([2]; G3 (N=13)): 5.00; Discontinuation due to PD (progressive disease), percent of patients ([2]; G3 (N=13)): 38.5%; Discontinuation due to AE (adverse event), number of patients ([2]; Total (N=38)): 7.00; Discontinuation due to AE (adverse event), percent of patients ([2]; Total (N=38)): 18.4%; Discontinuation due to PD (progressive disease), number of patients ([2]; Total (N=38)): 12.0; Discontinuation due to PD (progressive disease), percent of patients ([2]; Total (N=38)): 31.6%; CD10 and CD38 expression on transitional B cells over time ([3]; iNHL patients on cerdulatinib, FIG. 5B representative Group 1 patient): loss of CD10 and CD38 expression; Frequency of B cells of lymphocytes over time [3, 4]: did not change; Frequency of CD10 negative (non-transitional) naïve B cells over time [3, 4]: rise and increase; Frequency of total naïve B cells over time [3, 4]: did not change; Frequency of transitional (CD10+) B cells of total B cells over time [3, 4]: decreased; also recorded: induces loss of transitional B cell phenotype; Frequencies of switched memory or double negative B cells over time ([3]; iNHL patients, baseline (C1) vs cycles 2, 3, 6, FIG. 8): no meaningful impact; also recorded: does not impact; Impact on the measured B cell populations ([3]; iNHL patients, over a period of 6 months on therapy): very little impact
